One experiment addresses Wild-type RET kinase (Homo sapiens, UniProt P07949). Put plainly: HTRF method for testing the inhibitory activity of compounds against RET. The class given is biochemical. On the technique in general: In TR-FRET formats the signal depends on donor and acceptor labels being close together.
The target of another experiment is T1, Ba/F3-KIF5B-RET cell (Homo sapiens, UniProt P07949).
T1 construct: fused on or other part: P33176 (Kinesin-1 heavy chain)
Kind of experiment: CellTiter-Glo luminescence assay, inhibitory activity against Ba/F3-KIF5B-RET cell. The note with it: 72 h, read-out: Ba/F3-KIF5B-RET cell activity. In kind it is cell-based. From the text:
(C) In Vitro Screening Experiment - CellTiter-Glo Luminescence Assay for Testing The inhibitory activity of compounds against Ba/F3-KIF5B-RET cell
• 1. The mammalian cell expression vector containing human KIF5B-RET cDNA was introduced into Ba/F3 cells using the Neon® transfection system method, and the surviving clones screened by puromycin were subjected to cell growth inhibitory function experiments and Western blotting to verify cell lines with stable and high expression of RET. • 2. Cells were cultured in RPMI 1640 medium containing 10% fetal bovine serum, 1% penicillin-streptomycin, and 2 µg/mL puromycin, and then placed in a 37° C., 5% carbon dioxide cell incubator. • 3. The test compound (5 mM stock) was diluted 2.5 folds to […] with 100% dimethyl sulfoxide; and the compound was diluted into 10 concentrations at an equal ratio of 1:3 in a 384-well dilution plate. • 4. 0.2 µL of the serially diluted compound was added to a 384-well cell culture plate (Corning, 3570) using an Echo 550 pipetting system, 2 replicate wells for each concentration, and the final concentration of dimethyl sulfoxide was 0.5% (v/v). The gradient concentrations of the test compound were 5000, 1666.7, 555.5, 185.18, 61.72, 20.57, 6.858, 2.286, 0.764, 0.254 nM. • 5. 40 µL of Ba/F3-KIF5B-RET cell suspension containing 800 cells was added to each well, and incubated for 72 h in a 5% CO2 cell incubator. • 6. 20 µL of Cell Titer-Glo reagent was added to each well of the cell culture plate, and the culture system was then shaken and mixed thoroughly for 2 min to lyse the cells, the cells were then incubated at room temperature for 30 min, and the […] signal values were then read with an Envision 2104 microplate reader. • 7. By fitting the data with XLFit 5.0 based on the parameters formula, the IC50 value was calculated as: • [formula]
(In ATP-based viability assays light output follows the ATP content of the culture.)

Setting [1] is: HTRF, read-out: Wild-type RET kinase.

Among the data in US20230219979A1, “PYRAZOLO[1,5-a]PYRIDINE COMPOUND, PREPARATION METHOD THEREFOR AND USE THEREOF” (SHENZHEN ZHONGGE BIOLOGICAL TECHNOLOGY CO., LTD., priority 2019, published 2023) are IC50 and GI50 values, retold here.

Molecules are shown by their SMILES. pIC50: −log10 of the molar value. Like-named read-outs stand apart in the source and are kept apart here.

Chain of Wild-type RET kinase (P07949 29-1114): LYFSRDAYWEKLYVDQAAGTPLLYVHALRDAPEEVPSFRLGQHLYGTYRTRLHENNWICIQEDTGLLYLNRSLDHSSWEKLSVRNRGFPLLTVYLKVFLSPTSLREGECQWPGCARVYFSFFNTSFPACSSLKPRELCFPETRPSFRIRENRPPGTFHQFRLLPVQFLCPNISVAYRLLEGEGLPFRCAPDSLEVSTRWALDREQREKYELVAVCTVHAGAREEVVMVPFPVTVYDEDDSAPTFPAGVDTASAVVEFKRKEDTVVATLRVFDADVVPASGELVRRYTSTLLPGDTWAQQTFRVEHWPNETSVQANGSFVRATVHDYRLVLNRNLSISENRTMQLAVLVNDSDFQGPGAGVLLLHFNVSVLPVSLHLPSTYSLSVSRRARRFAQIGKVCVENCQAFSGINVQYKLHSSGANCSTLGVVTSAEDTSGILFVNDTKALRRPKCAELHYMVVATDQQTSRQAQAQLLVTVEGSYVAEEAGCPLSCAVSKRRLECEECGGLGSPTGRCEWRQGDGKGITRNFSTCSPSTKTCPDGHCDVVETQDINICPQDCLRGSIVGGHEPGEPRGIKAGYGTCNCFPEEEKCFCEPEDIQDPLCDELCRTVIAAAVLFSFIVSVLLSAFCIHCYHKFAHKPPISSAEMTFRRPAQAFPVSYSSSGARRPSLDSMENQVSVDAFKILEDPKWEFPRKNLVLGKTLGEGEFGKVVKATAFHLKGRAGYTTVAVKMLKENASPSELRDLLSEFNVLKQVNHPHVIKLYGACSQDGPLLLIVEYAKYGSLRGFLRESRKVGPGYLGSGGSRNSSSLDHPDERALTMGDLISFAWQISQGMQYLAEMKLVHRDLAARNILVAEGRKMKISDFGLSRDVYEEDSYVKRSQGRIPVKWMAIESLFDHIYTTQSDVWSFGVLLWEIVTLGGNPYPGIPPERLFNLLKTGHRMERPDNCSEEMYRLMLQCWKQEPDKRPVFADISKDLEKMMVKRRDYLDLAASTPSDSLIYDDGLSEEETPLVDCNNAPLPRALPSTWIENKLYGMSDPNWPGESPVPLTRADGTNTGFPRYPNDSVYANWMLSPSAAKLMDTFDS
T1 sequence (P07949 whole entry, change not shown, the tested form may be a part): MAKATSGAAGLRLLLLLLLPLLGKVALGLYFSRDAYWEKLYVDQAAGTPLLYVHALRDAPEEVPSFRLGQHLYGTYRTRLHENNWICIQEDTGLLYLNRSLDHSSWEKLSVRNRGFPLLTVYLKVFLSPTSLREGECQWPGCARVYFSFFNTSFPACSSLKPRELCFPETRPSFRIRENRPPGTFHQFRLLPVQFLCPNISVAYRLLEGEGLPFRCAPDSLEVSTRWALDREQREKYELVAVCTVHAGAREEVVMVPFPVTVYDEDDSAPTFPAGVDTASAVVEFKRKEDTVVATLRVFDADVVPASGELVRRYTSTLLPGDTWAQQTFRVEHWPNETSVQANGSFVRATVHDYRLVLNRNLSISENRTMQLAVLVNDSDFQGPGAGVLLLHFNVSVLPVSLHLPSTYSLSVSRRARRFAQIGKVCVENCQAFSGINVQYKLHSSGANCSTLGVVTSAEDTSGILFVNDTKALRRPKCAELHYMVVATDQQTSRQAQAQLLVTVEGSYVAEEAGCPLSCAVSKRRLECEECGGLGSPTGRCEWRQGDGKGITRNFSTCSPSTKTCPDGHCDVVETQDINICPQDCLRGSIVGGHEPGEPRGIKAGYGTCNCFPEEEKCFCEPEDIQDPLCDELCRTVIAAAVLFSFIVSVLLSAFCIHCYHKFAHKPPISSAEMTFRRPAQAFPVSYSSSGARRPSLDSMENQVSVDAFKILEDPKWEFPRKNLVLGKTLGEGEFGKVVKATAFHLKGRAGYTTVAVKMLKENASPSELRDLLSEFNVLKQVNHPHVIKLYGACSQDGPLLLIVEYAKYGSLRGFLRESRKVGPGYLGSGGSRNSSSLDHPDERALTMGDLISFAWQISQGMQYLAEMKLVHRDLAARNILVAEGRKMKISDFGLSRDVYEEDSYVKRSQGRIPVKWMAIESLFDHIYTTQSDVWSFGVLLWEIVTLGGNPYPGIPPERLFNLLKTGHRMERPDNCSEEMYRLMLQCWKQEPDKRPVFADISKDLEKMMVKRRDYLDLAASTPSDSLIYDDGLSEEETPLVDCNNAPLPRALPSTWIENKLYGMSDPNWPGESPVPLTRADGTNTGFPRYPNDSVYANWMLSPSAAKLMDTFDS

On to `CCNC(=O)c1cnn2cc(-c3cnn(C)c3)cc(-c3ccc(N4CCN(c5ccc(OC)nc5)CC4)nc3)c12` [Compound 3, N-ethyl-4-(6-(4-(6-methoxypyridin-3-yl)piperazin-1-yl)pyridin-3-yl)-6-(1-methyl-1H-pyridinoxazol-4-yl)H-pyrazolo[1,5-a]pyridine-3-carboxamide], for which the pIC50 on Wild-type RET kinase (setting [1]) is under 5.00.
For the compound `COc1ccc(CN2CCN(c3ccc(-c4cc(-c5cnn(C)c5)cn5ncc(NC(C)=O)c45)cn3)CC2)cn1` [Compound 4, N-(4-(6-(4-((6-methoxypyridin-3-yl)methyl)piperazin-1-yl)pyridin-3-yl)-6-(1-methyl-1H-pyrazol-4-yl)pyrazol[1,5-a]pyridin-3-yl)acetamide], the pIC50 at Wild-type RET kinase (setting [1]) was 5.18.
Regarding `COc1ccc(CN2CCN(c3ccc(-c4cc(-c5cnn(C)c5)cn5ncc(C(=O)NC(C)C)c45)cn3)CC2)cn1` [Compound 5], on Wild-type RET kinase (setting [1]), the pIC50 is under 5.00.
Take `CNC(=O)c1cnn2cc(-c3cnn(C)c3)cc(-c3ccc(N4CCN(Cc5ccc(OC)nc5)CC4)nc3)c12` [Compound 6]: the pIC50 on Wild-type RET kinase (setting [1]) is 6.17.
As to `CNC(=O)Nc1cnn2cc(-c3cnn(C)c3)cc(-c3ccc(N4CCN(Cc5ccc(OC)nc5)CC4)nc3)c12` [Compound 9, 1-(4-(6-(4-((6-methoxypyridin-3-yl)methyl)piperazin-1-yl)pyridin-3-yl)-6-(1-methyl-1H -pyrazol-4-yl)pyrazolo[1,5-a]pyridin-3-yl)-3-methylurea], on Wild-type RET kinase (setting [1]), the pIC50 was under 5.00.
For the compound `COc1ccc(CN2CCN(c3ccc(-c4cc(-c5cnn(C)c5)cn5ncc(NC(=O)C6CC6)c45)cn3)CC2)cn1` [Compound 10, N-(4-(6-(4-((6-methoxypyridin-3-yl)methyl)piperazin-1-yl)pyridin-3-yl)-6-(1-methyl-1H-pyrazol-4-yl)pyrazolo[1,5-a]pyridin-3-yl)cyclopropanecarboxamide], the pIC50 on Wild-type RET kinase (setting [1]) was under 5.00.
For the compound `COc1ccc(CN2CCN(c3ccc(-c4cc(-c5cnn(C)c5)cn5ncc(NC(=O)c6ccccc6)c45)cn3)CC2)cn1` [Compound 11, N-(4-(6-(4-((6-methoxypyridin-3-yl)methyl)piperazin-1-yl)pyridin-3-yl)-6-(1-methyl-1H-pyrazol-4-yl)pyrazolo[1,5-a]pyridin-3-yl)benzamide], at Wild-type RET kinase (setting [1]), the pIC50 is under 5.00.
For `COc1ccc(CN2CCN(c3ccc(-c4cc(-c5cnn(C)c5)cn5ncc(NC(=O)c6cncn6C)c45)cn3)CC2)cn1` [Compound 12, N-(4-(6-(4-((6-methoxypyridin-3-yl)methyl)piperazin-1-yl)pyridin-3-yl)-6-(1-methyl-1H-pyrazol-4-yl)pyrazolo[1,5-a]pyridin-3-yl)-1-methyl-1H-imidazole-5-carboxamide], the pIC50 on Wild-type RET kinase (setting [1]) is under 5.00.
For the compound `COc1ccc(CN2CCN(c3ccc(-c4cc(OCCN5CC6(COC6)C5)cn5ncc(C#N)c45)cn3)CC2)cn1` [Compound 13, 6-(2-(2-oxa-6-azaspiro[3.3]hept-6-yl)ethoxy)-4-(6-(4-((6-methoxypyridin-3-yl)methyl)piperazin-1-yl)pyridin-3-yl)pyrazolo[1,5-a]pyridine-3-carbonitrile], the GI50 on Ba/F3-KIF5B-RET cell worked out at 0.224 µM. Further, the pIC50 at Wild-type RET kinase (setting [1]) was 9.10.
For the compound `COc1ccc(CN2CCN(c3ccc(-c4cc(OCCN5CCC6(CCOCC6)CC5)cn5ncc(C#N)c45)cn3)CC2)cn1` [Compound 14, 6-(2-(3-oxa-9-azaspiro[5.5]undec-9-yl)ethoxy)-4-(6-(4-((6-methoxypyridine-3-yl)methyl)piperazin-1-yl)pyridin-3-yl)pyrazolo[1,5-a]pyridine-3-carbonitrile], the GI50 on Ba/F3-KIF5B-RET cell turned out to be 0.26 µM. Further, at Wild-type RET kinase (setting [1]), the pIC50 is 8.80.
Turning to `COc1ccc(CN2CCN(c3ccc(-c4cc(OCCN5CC6CCC5C6)cn5ncc(C#N)c45)cn3)CC2)cn1` (centres unmarked) [Compound 15, 6-(2-(2-azabicyclo[2.2.1]hept-2-yl)ethoxy)-4-(6-(4-((6-methoxypyridin-3-yl)methyl)piperazin-1-yl)pyridin-3-yl)pyrazolo[1,5-a]pyridine-3-carbonitrile], the GI50 on Ba/F3-KIF5B-RET cell was found to be 0.225 µM. In addition, the pIC50 on Wild-type RET kinase (setting [1]) is 8.85.
In the case of `COc1ccc(CN2CCN(c3ccc(-c4cc(OCCN5CC6CC6C5)cn5ncc(C#N)c45)cn3)CC2)cn1` (centres unmarked) [Compound 16, 6-(2-(3-azabicyclo[3.1.0]hex-3-yl)ethoxy)-4-(6-(4-((6-methoxypyridin-3-yl)methyl)piperazin-1-yl)pyridin-3-yl)pyrazolo[1,5-a]pyridine-3-carbonitrile], at Ba/F3-KIF5B-RET cell, the GI50 is 0.203 µM. For the same compound, on Wild-type RET kinase (setting [1]), the pIC50 was 8.96.
In the same order, the values of `COc1ccc(CN2C3CC2CN(c2cnc(-c4cc(OCCN5CC6CCCNC6C5)cn5ncc(C#N)c45)cn2)C3)cn1` (centres unmarked) [Compound 17, 4-(5-(6-((6-methoxypyridin-3-yl)methyl)-3,6-diazabicyclo[3.1.1]hept-3-yl)pyrazin-2-yl)-6-(2-(octahydro-6H-pyrrole[3,4-b]pyridin-6-yl)ethoxy)pyrazolo[1,5-a]pyridine-3-carbonitrile] are 0.0611 µM and 9.49.
As to `COc1ccc(CN2C3CC2CN(c2cnc(-c4cc(OCCN5CCC6NCCC6C5)cn5ncc(C#N)c45)cn2)C3)cn1` (centres unmarked) [Compound 18, 4-(5-(6-((6-methoxypyridin-3-yl)methyl)-3,6-diazabicyclo[3.1.1]hept-3-yl)pyrazin-2-yl)-6-(2-(octahydro-5H-pyrrolo[3,2-c]pyridin-5-yl)ethoxy)pyrazolo[1,5-a]pyridine-3-carbonitrile], at Ba/F3-KIF5B-RET cell, the GI50 turned out to be 0.123 µM. The pIC50 on Wild-type RET kinase (setting [1]) is 9.30.
For the compound `COc1ccc(CN2C3CC2CN(c2cnc(-c4cc(OCCN5CC6(CCCNC6)C5)cn5ncc(C#N)c45)cn2)C3)cn1` [Compound 19, 6-(2-(2,6-diazaspiro[3.5]non-2-yl)ethoxy)-4-(5-(6-((6-methoxypyridin-3-yl)methyl)-3,6-diazabicyclo[3.1.1]heptan-3-yl)pyrazin-2-yl)pyrazolo[1,5-a]pyridine-3-carbonitrile], the GI50 on Ba/F3-KIF5B-RET cell is 0.183 µM. The pIC50 on Wild-type RET kinase (setting [1]) was 9.11.
For the compound `COc1ccc(CN2C3CC2CN(c2cnc(-c4cc(OCCN5CCC6(COC6)C5)cn5ncc(C#N)c45)cn2)C3)cn1` [Compound 20, 6-(2-(2-oxa-6-azaspiro[3.4]oct-6-yl)ethoxy)-4-(5-(6-((6-methoxypyridin-3-yl)methyl)-3,6-diazabicyclo[3.1.1]heptan-3-yl)pyrazin-2-yl)pyrazolo[1,5-a]pyridine-3-carbonitrile], the GI50 at Ba/F3-KIF5B-RET cell was 0.0191 µM. At Wild-type RET kinase (setting [1]), the pIC50 is 8.58.
For the compound `CCNC(=O)Oc1cc(-c2cnc(N3CC4CC(C3)N4Cc3ccc(OC)nc3)cn2)c2c(C#N)cnn2c1` [Compound 42, 3-cyano-4-(5-(6-((6-methoxypyridin-3-yl)methyl)-3,6-diazabicyclo[3.1.1]heptan-3-yl)pyrazin-2-yl)pyrazolo[1,5-a]pyridin-6-ylethylcarbamate], the pIC50 at Wild-type RET kinase was 8.04.
For the compound `COc1ccc(CN2C3CC2CN(c2cnc(-c4cc(NCC5CC5)cn5ncc(C#N)c45)cn2)C3)cn1` [Compound 53], on Wild-type RET kinase (setting [1]), the pIC50 is 8.26.
As for `COc1ccc(CN2C3CC2CN(c2ccc(-c4cc(NCC5CCOCC5)cn5ncc(C#N)c45)cn2)C3)cn1` [Compound 54, 4-(6-(6-((6-methoxypyridin-3-yl)methyl)-3,6-diazabicyclo[3.1.1]heptyl-3-yl)pyridin-3-yl)-6-(((-2H-pyran-4-yl)methyl)amino)pyrazolo[1,5-a]pyridine-3-carbonitrile], the pIC50 at Wild-type RET kinase (setting [1]) is 8.56.
For the compound `COc1ccc(CN2C3CC2CN(c2cnc(-c4cc(N(C)CCN(C)C)cn5ncc(C#N)c45)cn2)C3)cn1` [Compound 58, 6-((2-(dimethylamino)ethyl)(methyl)amino)-4-(5-(6-((6-methoxypyridin-3-yl)methyl)-3,6-diazabicyclo[3.1.1]heptan-3-yl)pyrazin-2-yl)pyrazolo[1,5-a]pyridine-3-carbonitrile], the pIC50 on Wild-type RET kinase (setting [1]) was 7.98.
`COc1ccc(CN2C3CC2CN(c2ccc(-c4cc(NCC5CCCCC5)cn5ncc(C#N)c45)cn2)C3)cn1` [Compound 60, 6-((cyclohexylmethyl)amino)-4-(6-(6-((6-methoxypyridin-3-yl)methyl)-3,6-diazabicyclo[3.1.1]heptan-3-yl)pyridin-3-yl)pyrazolo[1,5-a]pyridine-3-carbonitrile]: on Wild-type RET kinase (setting [1]), the pIC50 is 7.53.
With `COc1ccc(CN2C3CC2CN(c2ccc(-c4cc(NCC5CCN(C)CC5)cn5ncc(C#N)c45)cn2)C3)cn1` [Compound 64], on Wild-type RET kinase (setting [1]), the pIC50 was 8.32.
Same read-out and setting: as for `COc1ccc(CN2C3CC2CN(c2ccc(-c4cc(NCC5CCOC5)cn5ncc(C#N)c45)cn2)C3)cn1` (centres unmarked) [Compound 65, 4-(6-(6-((6-methoxypyridin-3-yl)methyl)-3,6-diazabicyclo[3.1.1]heptyl-3-yl)pyridin-3-yl)-6-(((tetrahydrofuran-3-yl)methyl)amino)pyrazolo[1,5-a]pyridine-3-carbonitrile], the figure is 8.22.
For the compound `COc1ccc(CN2C3CC2CN(c2ccc(-c4cc(OCC(C)(C)O)cn5ncc(C#N)c45)cn2)C3)cn1` [LOXO-292, reference compound], the GI50 on Ba/F3-KIF5B-RET cell is 0.00708 µM.
